#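 Grown in 96-well plates, cells were treated for 48 hours with each compound at five concentrations. Insufficient inhibition: endpoint recorded as highest concentration tested. GI50 marks 50% less growth. At the TGI there is no net growth.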
# Assays:
# Assay in all cases: growth of human tumour cells (NCI), 48 h
# ACHN renal = tested on: ACHN renal
# A498 renal = tested on: A498 renal
# KM12 colon = tested on: KM12 colon
# HS 578T breast = tested on: HS 578T breast
# SK-MEL-5 melanoma = tested on: SK-MEL-5 melanoma
# SF-539 CNS = tested on: SF-539 CNS
# LOX IMVI melanoma = tested on: LOX IMVI melanoma
# 786-0 renal = tested on: 786-0 renal
# MDA-MB-231 breast = tested on: MDA-MB-231 breast
# MDA-MB-435 = tested on: MDA-MB-435
# SK-MEL-2 melanoma = tested on: SK-MEL-2 melanoma
# CCRF-CEM leukemia = tested on: CCRF-CEM leukemia
# HCC-2998 colon = tested on: HCC-2998 colon
# OVCAR-8 ovarian = tested on: OVCAR-8 ovarian
# UO-31 renal = tested on: UO-31 renal
# SK-OV-3 ovarian = tested on: SK-OV-3 ovarian
# T-47D breast = tested on: T-47D breast
# SNB-75 CNS = tested on: SNB-75 CNS
# HT29 colon = tested on: HT29 colon
# MCF7 breast = tested on: MCF7 breast
# K-562 leukemia = tested on: K-562 leukemia
# MALME-3M melanoma = tested on: MALME-3M melanoma
# HCT-116 colon = tested on: HCT-116 colon
# A549 NSCLC = tested on: A549 NSCLC
# NCI-H226 lung = tested on: NCI-H226 lung
# SR leukemia = tested on: SR leukemia
# SW-620 colon = tested on: SW-620 colon
# IGROV1 ovarian = tested on: IGROV1 ovarian
# OVCAR-4 ovarian = tested on: OVCAR-4 ovarian
# HOP-62 NSCLC = tested on: HOP-62 NSCLC
# NCI-H460 lung = tested on: NCI-H460 lung
# NCI/ADR-RES ovarian = tested on: NCI/ADR-RES ovarian
# DU-145 prostate = tested on: DU-145 prostate
# M14 melanoma = tested on: M14 melanoma
# SNB-19 CNS = tested on: SNB-19 CNS
# PC-3 prostate = tested on: PC-3 prostate
# NCI-H522 lung = tested on: NCI-H522 lung
# BT-549 breast = tested on: BT-549 breast
# OVCAR-3 ovarian = tested on: OVCAR-3 ovarian
# MOLT-4 leukemia = tested on: MOLT-4 leukemia
# U251 CNS = tested on: U251 CNS
# OVCAR-5 ovarian = tested on: OVCAR-5 ovarian
# RXF 393 renal = tested on: RXF 393 renal
# SF-295 CNS = tested on: SF-295 CNS
# HCT-15 colon = tested on: HCT-15 colon
# NCI-H23 lung = tested on: NCI-H23 lung
# SN12C renal = tested on: SN12C renal
# HOP-92 NSCLC = tested on: HOP-92 NSCLC
# SK-MEL-28 melanoma = tested on: SK-MEL-28 melanoma
# COLO 205 colon = tested on: COLO 205 colon
# UACC-62 melanoma = tested on: UACC-62 melanoma
# RPMI-8226 leukemia = tested on: RPMI-8226 leukemia
# CAKI-1 renal = tested on: CAKI-1 renal
# UACC-257 melanoma = tested on: UACC-257 melanoma
# TK-10 renal = tested on: TK-10 renal
# SF-268 CNS = tested on: SF-268 CNS
# HL-60(TB) leukemia = tested on: HL-60(TB) leukemia
# EKVX NSCLC = tested on: EKVX NSCLC
structure (smiles),measurement,setting,value
ClCc1ccc(-c2ccc(Cn3cnc4nc(Cl)nc(Cl)c43)cc2)cc1,GI50,ACHN renal,5.36 µM
same,TGI,ACHN renal,17 µM
same,GI50,A498 renal,17.7 µM
same,TGI,A498 renal,32 µM
same,GI50,KM12 colon,3.69 µM
same,TGI,KM12 colon,12.8 µM
same,GI50,HS 578T breast,5.81 µM
same,TGI,HS 578T breast,40.7 µM
same,GI50,SK-MEL-5 melanoma,4.55 µM
same,TGI,SK-MEL-5 melanoma,16.5 µM
same,GI50,SF-539 CNS,2.3 µM
same,TGI,SF-539 CNS,5.06 µM
same,GI50,LOX IMVI melanoma,1.86 µM
same,TGI,LOX IMVI melanoma,3.3 µM
same,GI50,786-0 renal,17.1 µM
same,TGI,786-0 renal,31.7 µM
same,GI50,MDA-MB-231 breast,11.1 µM
same,TGI,MDA-MB-231 breast,23.7 µM
same,GI50,MDA-MB-435,5.25 µM
same,TGI,MDA-MB-435,20.7 µM
same,GI50,SK-MEL-2 melanoma,7.9 µM
same,TGI,SK-MEL-2 melanoma,21.2 µM
same,GI50,CCRF-CEM leukemia,2.16 µM
same,TGI,CCRF-CEM leukemia,4.86 µM
same,GI50,HCC-2998 colon,4.63 µM
same,TGI,HCC-2998 colon,21.7 µM
same,GI50,OVCAR-8 ovarian,2.41 µM
same,TGI,OVCAR-8 ovarian,6.52 µM
same,GI50,UO-31 renal,16.7 µM
same,TGI,UO-31 renal,34.1 µM
same,GI50,SK-OV-3 ovarian,19.7 µM
same,TGI,SK-OV-3 ovarian,33.9 µM
same,GI50,T-47D breast,7.03 µM
same,TGI,T-47D breast,49.3 µM
same,GI50,SNB-75 CNS,4.5 µM
same,TGI,SNB-75 CNS,15.2 µM
same,GI50,HT29 colon,3.54 µM
same,TGI,HT29 colon,12.4 µM
same,GI50,MCF7 breast,3.18 µM
same,TGI,MCF7 breast,10.8 µM
same,GI50,K-562 leukemia,5.59 µM
same,TGI,K-562 leukemia,44.1 µM
same,GI50,MALME-3M melanoma,3.33 µM
same,TGI,MALME-3M melanoma,7.88 µM
same,GI50,HCT-116 colon,3.85 µM
same,TGI,HCT-116 colon,13.4 µM
same,GI50,A549 NSCLC,3.53 µM
same,TGI,A549 NSCLC,> 100 µM
same,GI50,NCI-H226 lung,13.8 µM
same,TGI,NCI-H226 lung,26.7 µM
same,GI50,SR leukemia,2.39 µM
same,TGI,SR leukemia,7.46 µM
same,GI50,SW-620 colon,2.22 µM
same,TGI,SW-620 colon,4.75 µM
same,GI50,IGROV1 ovarian,14.3 µM
same,TGI,IGROV1 ovarian,34.8 µM
same,GI50,OVCAR-4 ovarian,15 µM
same,TGI,OVCAR-4 ovarian,28.3 µM
same,GI50,HOP-62 NSCLC,13.5 µM
same,TGI,HOP-62 NSCLC,48.8 µM
same,GI50,NCI-H460 lung,7.85 µM
same,TGI,NCI-H460 lung,24.6 µM
same,GI50,NCI/ADR-RES ovarian,3.97 µM
same,TGI,NCI/ADR-RES ovarian,70.4 µM
same,GI50,DU-145 prostate,2.71 µM
same,TGI,DU-145 prostate,7.6 µM
same,GI50,M14 melanoma,18.7 µM
same,TGI,M14 melanoma,36.8 µM
same,GI50,SNB-19 CNS,4.58 µM
same,TGI,SNB-19 CNS,15.2 µM
same,GI50,PC-3 prostate,4.71 µM
same,TGI,PC-3 prostate,16.7 µM
same,GI50,NCI-H522 lung,12 µM
same,TGI,NCI-H522 lung,36.4 µM
same,GI50,BT-549 breast,2.72 µM
same,TGI,BT-549 breast,6.59 µM
same,GI50,OVCAR-3 ovarian,2.19 µM
same,TGI,OVCAR-3 ovarian,4.59 µM
same,GI50,MOLT-4 leukemia,3.36 µM
same,TGI,MOLT-4 leukemia,10.9 µM
same,GI50,U251 CNS,3.82 µM
same,TGI,U251 CNS,11.3 µM
same,GI50,OVCAR-5 ovarian,19.6 µM
same,TGI,OVCAR-5 ovarian,36 µM
same,GI50,RXF 393 renal,2.5 µM
same,TGI,RXF 393 renal,5 µM
same,GI50,SF-295 CNS,14.2 µM
same,TGI,SF-295 CNS,30.7 µM
same,GI50,HCT-15 colon,3.9 µM
same,TGI,HCT-15 colon,13.9 µM
same,GI50,NCI-H23 lung,7.32 µM
same,TGI,NCI-H23 lung,24.3 µM
same,GI50,SN12C renal,3.06 µM
same,TGI,SN12C renal,12.3 µM
same,GI50,HOP-92 NSCLC,3.82 µM
same,TGI,HOP-92 NSCLC,8.78 µM
same,GI50,SK-MEL-28 melanoma,2.38 µM
same,TGI,SK-MEL-28 melanoma,5.16 µM
same,GI50,COLO 205 colon,4.02 µM
same,TGI,COLO 205 colon,18.2 µM
same,GI50,UACC-62 melanoma,4.13 µM
same,TGI,UACC-62 melanoma,14.4 µM
same,GI50,RPMI-8226 leukemia,3.81 µM
same,TGI,RPMI-8226 leukemia,27.9 µM
same,GI50,CAKI-1 renal,2.21 µM
same,TGI,CAKI-1 renal,4.99 µM
same,GI50,UACC-257 melanoma,3.04 µM
same,TGI,UACC-257 melanoma,9.88 µM
same,GI50,TK-10 renal,6.88 µM
same,TGI,TK-10 renal,20.4 µM
same,GI50,SF-268 CNS,3.6 µM
same,TGI,SF-268 CNS,15.2 µM
same,GI50,HL-60(TB) leukemia,12.3 µM
same,TGI,HL-60(TB) leukemia,> 100 µM
same,GI50,EKVX NSCLC,15.9 µM
same,TGI,EKVX NSCLC,29.5 µM

# From PubChem BioAssay (NCI)
